Values of other authors as cited in patent US6717017B2, “Total synthesis of antitumor acylfulvenes” (The Regents of the University of California, priority 1996, dated 2004).

Key:
[1] = test system: MV 522 metastatic lung carcinoma xenografts; settings: MV 522 metastatic lung carcinoma xenografts in nude mice
skin cancers = settings: in vivo

Q: With CC1=C(CO)C2=C(C)C3(CC3)[C@@](C)(O)C(=O)C2=C1 [HMAF, hydroxymethylacylfulvene] as the molecule, how does the tumor regression [1] read?
A: complete tumor regression was observed in all animals

Q: And the “activity against breast (MX-1) cancer” value (breast (MX-1))?
A: outstanding activity

Q: What about the “activity against colon (HT-29) cancer” value (colon (HT-29)) of the same molecule?
A: outstanding activity

Q: And the “activity against skin cancers” value (skin cancers)?
A: outstanding activity
